Source: patent US20230146675A1, “PYRIMIDO[5,4-d]PYRIMIDINE DERIVATIVES AS ENT INHIBITORS FOR THE TREATMENT OF CANCERS, AND COMBINATION THEREOF WITH ADENOSINE RECEPTOR ANTAGONISTS” (ITEOS BELGIUM SA, priority 2020, published 2023)

Molecular target: T1, human ENT1 (Homo sapiens, UniProt Q99808)
T1 sequence (Q99808 1-456): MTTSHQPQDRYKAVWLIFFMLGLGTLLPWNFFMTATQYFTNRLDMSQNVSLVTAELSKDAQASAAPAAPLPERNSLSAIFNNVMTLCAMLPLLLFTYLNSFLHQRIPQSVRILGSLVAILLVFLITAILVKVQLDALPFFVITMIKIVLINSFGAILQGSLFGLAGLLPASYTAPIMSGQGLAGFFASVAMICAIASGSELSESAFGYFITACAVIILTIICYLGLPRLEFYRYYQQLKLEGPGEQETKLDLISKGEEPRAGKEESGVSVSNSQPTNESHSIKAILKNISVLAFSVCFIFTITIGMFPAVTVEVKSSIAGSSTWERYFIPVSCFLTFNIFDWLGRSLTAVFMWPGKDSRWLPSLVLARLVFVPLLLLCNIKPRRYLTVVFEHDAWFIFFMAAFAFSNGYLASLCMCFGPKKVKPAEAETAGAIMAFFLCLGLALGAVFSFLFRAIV
Experiment: ENT1 binding assay (competition with Sahenta-DY647 on JAR cells)
Set-up: JAR cells expressing ENT1 were bought from ATCC; host or cells: JAR cells
Conditions: binned IC50
In short: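 JAR cells were incubated with test compounds and the fluorescent ligand Sahenta-DY647 in competition. Plates were washed twice by centrifugation (4 min, 400 rcf, 4 °C). Binding potency was derived from the final fluorescence.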

IC50 [nM]	Structure (SMILES)
< 100	CCCN(C)c1nc(N(CCOC)CCOC)nc2c(N3CCS(=O)(=O)CC3)nc(N(CCOC)CCOC)nc12 [Compound 8, 4-(2,6-bis(bis(2-methoxyethyl)amino)-8-(methyl(propyl)amino)pyrimido[5,4-d]pyrimidin-4-yl)thiomorpholine 1,1-dioxide]
100 to 500	COCCN(CCOC)c1nc(N2CCC(F)C2)c2nc(N(CCOC)CCOC)nc(N3CCC(OC)CC3)c2n1 (centres unmarked) [Compound 104, 4-(3-fluoropyrrolidin-1-yl)-N2,N2,N6,N6-tetrakis(2-methoxyethyl)-8-(4-methoxypiperidin-1-yl)pyrimido[5,4-d]pyrimidine-2,6-diamine]
500 to 1000	COCCN(CCOC)c1nc(N2CCC(OC)CC2)c2nc(N(CCOC)CCOC)nc(N(C)CCc3ccccn3)c2n1 [Compound 83, N2,N2,N6,N6-tetrakis(2-methoxyethyl)-8-(4-methoxypiperidin-1-yl)-N4-methyl-N4-(2-(pyridin-2-yl)ethyl)pyrimido[5,4-d]pyrimidine-2,4,6-triamine]
100 to 500	COCCN(CCOC)c1nc(N2CCC(OC)CC2)c2nc(N(CCOC)CCOC)nc(NCc3cnn(C(C)C)c3)c2n1 [Compound 163, N4-((1-isopropyl-1H-pyrazol-4-yl)methyl)-N2,N2,N6,N6-tetrakis(2-methoxyethyl)-8-(4-methoxypiperidin-1-yl)pyrimido[5,4-d]pyrimidine-2,4,6-triamine]
100 to 500	CCCN(C)c1nc(N(CCOC)CCOC)nc2c(N3CCN(C)C(=O)C3)nc(N(CCOC)CCOC)nc12 [Compound 191, 4-(2,6-bis(bis(2-methoxyethyl)amino)-8-(methyl(propyl)amino)pyrimido[5,4-d]pyrimidin-4-yl)-1-methylpiperazin-2-one]
100 to 500	COCCN(CCOC)c1nc(N2CCN(C)C(=O)C2)c2nc(N(CCOC)CCOC)nc(NCc3cccc(S(N)(=O)=O)c3)c2n1 [Compound 204, 3-(((2,6-bis(bis(2-methoxyethyl)amino)-8-(4-methyl-3-oxopiperazin-1-yl)pyrimido[5,4-d]pyrimidin-4-yl)amino)methyl)benzenesulfonamide]
< 100	COCCN(CCOC)c1nc(N2CCN(C)C(=O)C2)c2nc(N(CCOC)CCOC)nc(N(C)Cc3cccc(OC(F)(F)F)c3)c2n1 [Compound 236, 4-(2,6-bis(bis(2-methoxyethyl)amino)-8-(methyl(3-(trifluoromethoxy)benzyl)amino)pyrimido[5,4-d]pyrimidin-4-yl)-1-methylpiperazin-2-one]
< 100	CCN(CC)c1nc(N(CCOC)CCOC)nc2c(N3CCC(OC)CC3)nc(N(CCOC)CCOC)nc12 [Compound 85, N4,N4-diethyl-N2,N2,N6,N6-tetrakis(2-methoxyethyl)-8-(4-methoxypiperidin-1-yl)pyrimido[5,4-d]pyrimidine-2,4,6-triamine]
< 100	COCCN(CCOC)c1nc(N2CCN(C)C(=O)C2)c2nc(N(CCOC)CCOC)nc(NCc3ccc(F)c(F)c3)c2n1 [Compound 213, 4-(2,6-bis(bis(2-methoxyethyl)amino)-8-((3,4-difluorobenzyl)amino)pyrimido[5,4-d]pyrimidin-4-yl)-1-methylpiperazin-2-one]
< 100	COCCN(CCOC)c1nc(N2CCn3ccnc3C2)c2nc(N(CCOC)CCOC)nc(N3CCN(C)C(=O)C3)c2n1 [Compound 257, 4-(2,6-bis(bis(2-methoxyethyl)amino)-8-(5,6-dihydroimidazo[1,2-a]pyrazin-7(8H)-yl)pyrimido[5,4-d]pyrimidin-4-yl)-1-methylpiperazin-2-one]

The remaining lines, values behind:

Structure (SMILES)	IC50 [nM]
COCCN(CCOC)c1nc(N2CCN(C)C(=O)C2)c2nc(N3CCn4ncnc4C3)nc(N3CCC(OC)CC3)c2n1 [Compound 283, 4-(2-(bis(2-methoxyethyl)amino)-6-(5,6-dihydro-[1,2,4]triazolo[1,5-a]pyrazin-7(8H)-yl)-8-(4-methoxypiperidin-1-yl)pyrimido[5,4-d]pyrimidin-4-yl)-1-methylpiperazin-2-one]	500 to 1000
COCCN(CCOC)c1nc(N2CCC(OC)CC2)c2nc(N(CCOC)CCOC)nc(NCc3cccc(-c4ncco4)c3)c2n1 [Compound 151, N2,N2,N6,N6-tetrakis(2-methoxyethyl)-8-(4-methoxypiperidin-1-yl)-N4-(3-(oxazol-2-yl)benzyl)pyrimido[5,4-d]pyrimidine-2,4,6-triamine]	100 to 500
COCCN(CCOC)c1nc(N2CCC(OC)CC2)c2nc(N(CCOC)CCOC)nc(NCc3cccc(OC(F)F)c3)c2n1 [Compound 144, N4-(3-(difluoromethoxy)benzyl)-N2,N2,N6,N6-tetrakis(2-methoxyethyl)-8-(4-methoxypiperidin-1-yl)pyrimido[5,4-d]pyrimidine-2,4,6-triamine]	100 to 500
COCCN(CCOC)c1nc(N2CCCC(CO)C2)c2nc(N(CCOC)CCOC)nc(N3CCC(OC)CC3)c2n1 (centres unmarked) [Compound 115, (1-(2,6-bis(bis(2-methoxyethyl)amino)-8-(4-methoxypiperidin-1-yl)pyrimido[5,4-d]pyrimidin-4-yl)piperidin-3-yl)methanol]	100 to 500
CCOCCN(CCOCC)c1nc(N2CCN(C)C(=O)C2)c2nc(N(CCOCC)CCOCC)nc(N3CCC(OC)CC3)c2n1 [Compound 199, 4-(2,6-bis(bis(2-ethoxyethyl)amino)-8-(4-methoxypiperidin-1-yl)pyrimido[5,4-d]pyrimidin-4-yl)-1-methylpiperazin-2-one]	< 100
COCCN(CCOC)c1nc(N2CCN(C)C(=O)C2)c2nc(N3CCN(S(C)(=O)=O)CC3)nc(N3CCC(OC)CC3)c2n1 [Compound 279, 4-(2-(bis(2-methoxyethyl)amino)-8-(4-methoxypiperidin-1-yl)-6-(4-(methylsulfonyl)piperazin-1-yl)pyrimido[5,4-d]pyrimidin-4-yl)-1-methylpiperazin-2-one]	100 to 500
COCCN(CCOC)c1nc(N2CCC(OC)CC2)c2nc(N(CCOC)CCOC)nc(OCc3cc(OC)cc(OC)c3)c2n1 [Compound 152, 4-((3,5-dimethoxybenzyl)oxy)-N2,N2,N6,N6-tetrakis(2-methoxyethyl)-8-(4-methoxypiperidin-1-yl)pyrimido[5,4-d]pyrimidine-2,6-diamine]	< 100
COCCN(CCOC)c1nc(N2CCC(F)(F)CC2)c2nc(N(CCOC)CCOC)nc(N3CCC(OC)CC3)c2n1 [Compound 200, 4-(4,4-difluoropiperidin-1-yl)-N2,N2,N6,N6-tetrakis(2-methoxyethyl)-8-(4-methoxypiperidin-1-yl)pyrimido[5,4-d]pyrimidine-2,6-diamine]	< 100
COCCN(CCOC)c1nc(N2CCC(OC)CC2)c2nc(N(CCOC)CCOC)nc(NCC3CCOC3)c2n1 (centres unmarked) [Compound 57, N2,N2,N6,N6-tetrakis(2-methoxyethyl)-8-(4-methoxypiperidin-1-yl)-N4-((tetrahydrofuran-3-yl)methyl)pyrimido[5,4-d]pyrimidine-2,4,6-triamine]	500 to 1000
COCCN(CCOC)c1nc(N2CCC(OC)CC2)c2nc(N(CCOC)CCOC)nc(NCCOc3ccccc3)c2n1 [Compound 56, N2,N2,N6,N6-tetrakis(2-methoxyethyl)-8-(4-methoxypiperidin-1-yl)-N4-(2-phenoxyethyl)pyrimido[5,4-d]pyrimidine-2,4,6-triamine]	100 to 500
COCCN(CCOC)c1nc(N2CCN(c3nc(C)no3)CC2)c2nc(N(CCOC)CCOC)nc(N3CCN(c4nc(C)no4)CC3)c2n1 [Compound 129, N2,N2,N6,N6-tetrakis(2-methoxyethyl)-4,8-bis(4-(3-methyl-1,2,4-oxadiazol-5-yl)piperazin-1-yl)pyrimido[5,4-d]pyrimidine-2,6-diamine]	100 to 500
COCCN(CCOC)c1nc(N2CCC(OC)CC2)c2nc(N(CCOC)CCOC)nc(N3CCCCC3)c2n1 [Compound 318, N2,N2,N6,N6-tetrakis(2-methoxyethyl)-4-(4-methoxypiperidin-1-yl)-8-(piperidin-1-yl)pyrimido[5,4-d]pyrimidine-2,6-diamine]	500 to 1000
COCCN(CCOC)c1nc(N2CC(O)(C(F)(F)F)C2)c2nc(N(CCOC)CCOC)nc(N3CCC(OC)CC3)c2n1 [Compound 111, 1-(2,6-bis(bis(2-methoxyethyl)amino)-8-(4-methoxypiperidin-1-yl)pyrimido[5,4-d]pyrimidin-4-yl)-3-(trifluoromethyl)azetidin-3-ol]	< 100
COCCN(CCOC)c1nc(N2CCC(OC)CC2)c2nc(N(CCOC)CCOC)nc(NCc3cc(C)no3)c2n1 [Compound 162, N2,N2,N6,N6-tetrakis(2-methoxyethyl)-8-(4-methoxypiperidin-1-yl)-N4-((3-methylisoxazol-5-yl)methyl)pyrimido[5,4-d]pyrimidine-2,4,6-triamine]	500 to 1000
COCCN(CCOC)c1nc(N2CCC(OC)CC2)c2nc(N(CCO)CCO)nc(N3CCc4oc(C)nc4C3)c2n1 [Compound 322, 2,2′-((6-(bis(2-methoxyethyl)amino)-8-(4-methoxypiperidin-1-yl)-4-(2-methyl-6,7-dihydrooxazolo[4,5-c]pyridin-5(4H)-yl)pyrimido[5,4-d]pyrimidin-2-yl)azanediyl)bis(ethan-1-ol)]	100 to 500
COCCN(CCOC)c1nc(N2CCN(C)C(=O)C2)c2nc(N3CCC(S(C)(=O)=O)CC3)nc(N3CCC(OC)CC3)c2n1 [Compound 292, 4-(2-(bis(2-methoxyethyl)amino)-8-(4-methoxypiperidin-1-yl)-6-(4-(methyisulfonyl)piperidin-1-yl)pyrimido[5,4-d]pyrimidin-4-yl)-1-methylpiperazin-2-one]	100 to 500
